The term GI50 denotes the concentration at which growth is held to half of that of the control. A word on the TGI: it is the concentration giving total growth inhibition. High values mean lower sensitivity of the cells, low ones greater sensitivity of the cells.

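Method: 48-hour compound exposure of cells in 96-well plates, five concentrations, linear interpolation of endpoints. GI50 marks 50% less growth. TGI: concentration producing complete growth inhibition.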 Bounds are passed on as bounds.

Assay in all cases: DTP human tumour cell line panel, 48 h
Assay [1] relates to KM12 colon.
The subject of assay [2] is MDA-MB-231 breast.
Assay [3] relates to HCT-116 colon.
The subject of assay [4] is U251 CNS.
The subject of assay [5] is SF-539 CNS.
Assay [6] relates to NCI-H226 lung.
In assay [7] the test system is SF-295 CNS.
For assay [8], the system named is HCC-2998 colon.
In assay [9] the test system is HS 578T breast.
Assay [10] has as its system SN12C renal.

As to `O=Cc1ccc(-c2ccc(-c3nc4ccccc4o3)cc2)o1`, the GI50 is 21 µM in [1]; 21 µM in [2]; 27.1 µM in assay [3]; 25.4 µM in assay [4]; 32.3 µM in assay [5]; 17.9 µM in assay [6]. The GI50 in assay [7] is 28 µM; in assay [8], 28600 nM. The TGI was 53.4 µM in [1]; 61.6 µM in assay [2]; 80.4 µM in assay [3]; 88.1 µM in [4]; over 100 µM in assay [5]; over 100 µM in assay [6]. Further, the concentration for total growth inhibition (TGI) was found to be 85 µM in assay [7] and 76.4 µM in [8].

On to `CC1(CCC(=O)OC2CCCCC2)OCCO1`, for which the TGI in assay [9], in assay [1], in assay [2], in assay [3], in [4] and in assay [5] was over 100 µM each time. Moreover, the TGI in [6], in assay [7] and in [10] was over 100 µM in each case.

As to `CCN(CC)CCCNC(=O)c1c2c(n3ccccc13)C(=O)c1ncccc1C2=O`, the GI50 is 2.46 µM in assay [9]; 0.44 µM in assay [1]; 0.404 µM in [2]; 0.25 µM in assay [3]; 1.37 µM in assay [4]; 1.07 µM in [5]. The GI50 was 1.07 µM in assay [7] and 388 nM in assay [8]. The TGI in assay [9] came out at 7.3 µM; in [1], 6.33 µM; in [2], 9.73 µM; in [3], 1.09 µM; in assay [4] it was 2.89 µM; in assay [5] it was 2.45 µM. Further, the TGI in assay [7] was found to be 6.29 µM; in assay [8], 1.65 µM.

With `COc1cccc(/C=C/C(=O)c2ccc(Cl)cc2Cl)c1`, the GI50 in assay [9] was 22.3 µM; in [1] it was 17.2 µM; in [2] it was 8.11 µM; in [3] it was 4.94 µM; in assay [4], 9.19 µM; in assay [5], 12.2 µM. For the same compound, the figures for the GI50 in [6], in assay [7] and in assay [10] were 9.79 µM, 28.2 µM and 8.72 µM, respectively. For the same compound, the TGI in [9] was over 50 µM; in [1], over 50 µM; in [2], 15.9 µM; in assay [3], 19.1 µM; in assay [4], over 50 µM; in [5] it was 23 µM. For the same compound, the TGI in [6] was 25.7 µM; in assay [7] it was over 50 µM; in assay [10], 16.5 µM.

With `COc1ccc(/C=N\Nc2ccc([N+](=O)[O-])cn2)cc1OC`, the GI50 in [9] is 21 µM; in assay [2], 6.82 µM; in [4] it was 3.56 µM; in [5], 4.37 µM; in assay [6] it was 8.39 µM; in [7] it was over 100 µM. Besides, the results for the GI50 in [10] and in [8] were over 100 µM and over 100000 nM, respectively. Besides, the total growth inhibition concentration (TGI) was over 100 µM in [9]; over 100 µM in assay [2]; 74.2 µM in [4]; 23.4 µM in assay [5]; over 100 µM in assay [6]; over 100 µM in assay [7]. For the same compound, the TGI in assay [10] and in [8] was over 100 µM in each case.

As for `N#CC1=C(N)NC(N2CCOCC2)=NC12Nc1ccccc1N2`, the GI50 in assay [9] was 18.9 µM; in [1] it was over 100 µM; in assay [2], 15.3 µM; in [3], 16 µM; in assay [4], 52.6 µM; in assay [5] it was 36.3 µM. For the same compound, the GI50 in [6] is 27.3 µM; in [7], 32.6 µM; in assay [10] it was 30.1 µM. Also, the total growth inhibition concentration (TGI) is 54.2 µM in assay [9]; over 100 µM in assay [1]; 70.3 µM in assay [2]; over 100 µM in [3]; over 100 µM in assay [4]; over 100 µM in assay [5]. For the same compound, the TGI in assay [6], in [7] and in [10] was over 100 µM throughout.

For `CCN(CC)CCCC(C)N=C(C1=C(C(=NC(C)CCCN(CC)CC)c2cccc(OC)c2)C(=O)NC1=O)c1cccc(OC)c1` (stereo not drawn), the GI50 in assay [9] was 4.24 µM; in assay [1], 1.81 µM; in assay [2], 1.17 µM; in assay [3], 0.747 µM; in assay [4], 1.06 µM; in assay [6], 2.83 µM. Besides, the GI50 in assay [7] is 1.47 µM; in assay [10], 2.38 µM; in assay [8] it was 1050 nM. Moreover, the TGI was determined as 14.5 µM in [9]; 6.36 µM in [1]; 3.78 µM in assay [2]; 1.89 µM in assay [3]; 2.5 µM in [4]; 13.6 µM in assay [6]. In addition, the concentration for total growth inhibition (TGI) in assay [7] was 5.94 µM; in assay [10], 14.3 µM; in [8] it was 2.2 µM.

As to `CC[N+]1(C)CCC(O)(c2ccc(OC)cc2)C(C(=O)c2ccc(OC)cc2)C1` (stereo not drawn), the TGI in [9] was 7.43 µM; in assay [1], 31.2 µM; in [3], 28.1 µM; in assay [4], 33 µM; in [5] it was 32 µM; in assay [6] it was 34.4 µM. For the same compound, the figures for the TGI in assay [7], in [10] and in [8] were 38.9 µM, 32.9 µM and 34.8 µM, respectively.

Regarding `COC(=O)Cc1ccc(Oc2cnc3cc(F)c(F)cc3n2)cc1`, the GI50 in assay [9] was over 100 µM; in assay [1], over 100 µM; in assay [2] it was over 100 µM; in [3], 26 µM; in assay [4], over 100 µM; in [5] it was over 100 µM. Also, the values for the GI50 in assay [6], in [7] and in assay [10] were 52.9 µM, over 100 µM and over 100 µM, respectively. For the same compound, the TGI in assay [9], in [1], in assay [2], in assay [3], in assay [4] and in [5] was over 100 µM in each case. Moreover, the TGI in assay [6], in assay [7] and in assay [10] was over 100 µM in each case.

(Values after PubChem BioAssay (NCI).)
